Laboratory results as given in patent US7585460B2, “Method for inhibiting the biological acidification of water in contact with materials containing sulfur” (ENI S.p.A., priority 2003, dated 2009).

How the values were obtained:
Type in all cases: cell-based, Thiobacillus
[1] = test system: strains of the Thiobacilli type present in a natural environment; experiment: Acidification of TM medium or rainwater with sulfur powder, no inoculation (Example 4)
Description: To imitate the bacterial growth conditions in a natural environment, the same experiment as Example 1 was repeated without the inoculation of Thiobacilli.
The TM saline medium was compared with a medium consisting of rainwater sterilized at a low temperature by filtration on a membrane of cellulose nitrate (porosity 0.2 microns).
The experiment is aimed at verifying the inhibiting action of NaCl on the acidification of water rich and poor in nutrients in contact with elemental sulfur due to strains of the Thiobacilli type present in a natural environment.

[2] = test system: Thiobacilli (microbial consortium); experiment: Comparison of NaCl and SLS, TM medium with sulfur flowers and inoculated mixed culture (Example 6); settings: for O.D. / p.H.: B: 33 g/l of NaCl
Description: The experiment was aimed at comparing the action of SLS, a known bacteriostatic for Thiobacilli, and Sodium Chloride on the same microbial consortium.
A series of 6 100 ml flasks containing 50 ml of TM medium (with 0.4 g of sulfur flowers), were inoculated with 1 ml of mixed culture containing 10^8 cells/ml.
• A—2 control flasks containing TM and sulfur, without NaCl; • B—2 flasks with TM, sulfur and 33 g/l of NaCl; • C—2 flasks with TM, sulfur and 20 mg/l of SLS (concentration used in literature as bacteriostatic) The pH values and the bacterial growth were measured over a period of 34 days, by means of the increase in the absorbance.

Thiobacilli [3] = experiment: Acidification of rainwater over submersed sulfur block wetted with Thiobacilli, outdoors (Example 8); settings: 30 g/l NaCl
Description: Two blocks of elemental sulfur with an upper surface of approximately 2500 cm^2 (8.5 Kg of sulfur) are positioned in two containers. The upper surface of each block of sulfur is wetted with 250 ml of a bacterial suspension of Thiobacilli containing over 10^8 bacteria per milliliter. The two blocks are subsequently submersed with rainwater. Sodium chloride is added to one of the containers until a concentration of 30 g/l is reached.
The containers are exposed to the outside environment for three months, care being taken to regularly replace the water possibly lost by evaporation. At the end of this period, the pH of the solution in the two containers is measured.

Thiobacilli [4] = experiment: Acidification of water on sulfur block with salt englobed in surface sulfur layer, covered with sand (Example 10); settings: 3 mm sulfur layer containing sodium chloride (10%), 2 cm sand
Description: Two blocks of elemental sulfur with an upper surface of approximately 2500 cm^2 (8.5 Kg of sulfur) are positioned in two containers. The surface of one block is then covered with a fine layer (3 mm) of liquid sulfur containing sodium chloride (10%). The upper surface of each block of sulfur is wetted with 250 ml of a bacterial suspension of Thiobacilli containing over 10^8 bacteria per milliliter. The two blocks are subsequently covered with a 2 cm layer of sand and wetted at regular intervals of time with rainwater until the layer of sand is saturated and the rilling of excess water is produced with respect to the saturation. Rainwater is added every month in a quantity equivalent to a fall of 100 mm.
The containers are exposed to the outside environment for three months. At the end of this period, the pH of the water in contact with the sulfur in the two containers, is measured.

Structure (SMILES): [Cl-].[Na+] [NaCl, Sodium Chloride]
- pH ([1]; Rainwater + NaCl, day 0): 6.0
- pH ([1]; Rainwater + NaCl, day 2): 6.0
- pH ([1]; Rainwater + NaCl, day 4): 6.0
- pH ([1]; Rainwater + NaCl, day 7): 6.0
- pH ([1]; Rainwater + NaCl, day 9): 6.0
- pH ([1]; Rainwater + NaCl, day 11): 6.0
- pH ([1]; Rainwater + NaCl, day 14): 6.0
- pH ([1]; Rainwater + NaCl, day 21): 5.8
- pH ([1]; Rainwater + NaCl, day 23): 5.8
- pH ([1]; TM Medium + NaCl, day 0): 6.0
- pH ([1]; TM Medium + NaCl, day 2): 6.0
- pH ([1]; TM Medium + NaCl, day 4): 6.0
- pH ([1]; TM Medium + NaCl, day 7): 6.0
- pH ([1]; TM Medium + NaCl, day 9): 6.0
- pH ([1]; TM Medium + NaCl, day 11): 6.0
- pH ([1]; TM Medium + NaCl, day 14): 6.0
- pH ([1]; TM Medium + NaCl, day 21): 5.8
- pH ([1]; TM Medium + NaCl, day 23): 5.8
- efficacy of the treatment with respect to that with SLS ([2]; 33 g/l NaCl vs 20 mg/l SLS, possibly due to the different concentrations): greater efficacy
- inhibition of the acidification of water in contact with elemental sulfur ([2]; 33 g/l NaCl, 20 mg/l SLS): capable of inhibiting the acidification
- O.D. ([2]; day 0): 0.014
- p.H. ([2]; day 0): 6.0
- O.D. ([2]; day 3): 0.015
- p.H. ([2]; day 3): 6.0
- O.D. ([2]; day 5): 0.017
- p.H. ([2]; day 5): 6.0
- O.D. ([2]; day 8): 0.023
- p.H. ([2]; day 8): 5.8
- O.D. ([2]; day 11): 0.028
- p.H. ([2]; day 11): 5.8
- O.D. ([2]; day 16): 0.025
- p.H. ([2]; day 16): 5.8
- O.D. ([2]; day 21): 0.026
- p.H. ([2]; day 21): 5.8
- O.D. ([2]; day 23): 0.022
- p.H. ([2]; day 23): 5.8
- O.D. ([2]; day 28): 0.022
- p.H. ([2]; day 28): 5.8
- O.D. ([2]; day 31): 0.026
- p.H. ([2]; day 31): 5.8
- pH (Thiobacilli [3]; day 0): 6.0
- pH (Thiobacilli [3]; day 10): 5.9
- pH (Thiobacilli [3]; day 20): 5.8
- pH (Thiobacilli [3]; day 30): 5.8
- pH (Thiobacilli [3]; day 40): 5.8
- pH (Thiobacilli [3]; day 90): 5.8
- pH (Thiobacilli [4]; day 0): 6.5
- pH (Thiobacilli [4]; day 10): 6.5
- pH (Thiobacilli [4]; day 20): 6.5
- pH (Thiobacilli [4]; day 30): 6.5
- pH (Thiobacilli [4]; day 90): 6.5
